Results as given in patent publication US7919261B2, “Methods for predicting treatment response based on the expression profiles of protein and transcription biomarkers” (Merck Sharp & Dohme Corp., priority 2006, dated 2011).

Columns and labels:
HUT78 = experiment: TUNEL assay, vorinostat, JAK inhibitor and combination; type: cell-based, human; settings: for % TUNEL positive cells: HUT78 cells, 48 h, induction of apoptosis
IM_9 = experiment: CellTiter-Blue Cell Viability Assay; type: cell-based; settings: Homo sapiens, IM-9; cell line IM_9, Multiple Myeloma; read-out: IC50 (μM) (Cell Titre-Blue assay)
Experimental: (§1) For the proliferation assay, cell lines were seeded on 96-well plates (Corning). […] The CellTiter-Blue Reagent™ was added to each of the wells. Experiments were performed in triplicate. The plates were then placed at 37° C. for two hours, and subsequently read on the Flex Station II […] from Molecular Devices. The IC50 values were calculated using the Sigma Plot software.
(§2) An expanded set of 50 human cell lines, including the twelve cell lines listed in Table 1, were assembled (Table 2), that represent a range of lymphoid tumor types (including 10 diffuse large B cell lymphoma, 10 Burkitt lymphoma, 8 multiple myeloma and 5 CTCL).

Toledo [1] = experiment: CellTiter-Blue Cell Viability Assay; type: cell-based; settings: Homo sapiens, cell line Toledo (1), Lymphoma DLBCL, read-out: IC50 (μM) (Cell Titre-Blue assay)
Experimental: as §1, §2

DB = experiment: CellTiter-Blue Cell Viability Assay; type: cell-based; settings: Homo sapiens; cell line DB, Lymphoma DLBCL; read-out: IC50 (μM) (Cell Titre-Blue assay)
Experimental: as §1, §2

HuT_78 = experiment: CellTiter-Blue Cell Viability Assay; type: cell-based; settings: Homo sapiens, HuT78; cell line HuT_78, Lymphoma- CTCL; read-out: IC50 (μM) (Cell Titre-Blue assay)
Experimental: as §1, §2

SU_DHL_4 = experiment: CellTiter-Blue Cell Viability Assay; type: cell-based; settings: Homo sapiens, SU-DHL-4; cell line SU_DHL_4, Lymphoma DLBCL; read-out: IC50 (μM) (Cell Titre-Blue assay)
Experimental: as §1, §2

OCI_LY_19 = experiment: CellTiter-Blue Cell Viability Assay; type: cell-based; settings: Homo sapiens, OCI-LY19; cell line OCI_LY_19, Lymphoma DLBCL; read-out: IC50 (μM) (Cell Titre-Blue assay)
Experimental: as §1, §2

HUT_102 = experiment: CellTiter-Blue Cell Viability Assay; type: cell-based; settings: Homo sapiens, HuT-102; cell line HUT_102 (HUT102), Lymphoma - CTCL; read-out: IC50 (μM) (Cell Titre-Blue assay)
Experimental: as §1, §2

RL = experiment: CellTiter-Blue Cell Viability Assay; type: cell-based; settings: Homo sapiens; cell line RL, Lymphoma - DLBCL; read-out: IC50 (μM) (Cell Titre-Blue assay)
Experimental: as §1, §2

BC_3 = experiment: ApoONE Homogeneous Caspase-3/7 Assay; type: cell-based, human; settings: cell line BC_3
Experimental: (§3) Apoptosis assay: ApoONE® Homogeneous Caspase-3/7 Assay (Promega) was performed according to standard protocol (Promega). For the caspase assay cell lines were seeded and treated with vorinostat as previously indicated. After 24 hours of treatment, a volume equal to the media volume in each well of Apo-One Caspase 3/7 lysis was added to each well with cells. The apoptosis assay was then performed according to the manufacturer's instructions. The plates were read on the Flex Station II 384 from Molecular Devices. Where indicated, DNA fragmentation in response to vorinostat was also assessed in some cell lines by TUNEL assay (BD-PharMingen). […] Samples were analyzed by flow cytometry (FACSCalibur).
as §2

HH = experiment: ApoONE Homogeneous Caspase-3/7 Assay; type: cell-based, human; settings: cell line HH
Experimental: as §3, §2

Toledo [2] = experiment: ApoONE Homogeneous Caspase-3/7 Assay; type: cell-based, human
Experimental: as §3, §2

ST486 = experiment: ApoONE Homogeneous Caspase-3/7 Assay; type: cell-based, human; settings: cell line ST486
Experimental: as §3, §2

SUP_T1 = experiment: ApoONE Homogeneous Caspase-3/7 Assay; type: cell-based, human; settings: cell line SUP_T1 (SUPT1)
Experimental: as §3, §2

JM1 = experiment: ApoONE Homogeneous Caspase-3/7 Assay; type: cell-based, human; settings: cell line JM1
Experimental: as §3, §2

SMILES | % TUNEL positive cells (HUT78) [%] | induction of apoptosis in combination with vorinostat (TUNEL assay) (HUT78; HUT78 CTCL cells, as detailed in Table 4) | IC50 (IM_9) [µM] | IC50 (Toledo [1]) [µM] | IC50 (DB) [µM] | IC50 (HuT_78) [µM] | IC50 (SU_DHL_4) [µM] | IC50 (OCI_LY_19) [µM] | IC50 (HUT_102) [µM] | IC50 (RL) [µM] | Caspase 3,7 activation- 24 h (1 μM vorinostat)* (BC_3) | Caspase 3,7 activation- 24 h (1 μM vorinostat)* (HH) | Caspase 3,7 activation- 24 h (1 μM vorinostat)* (Toledo [2]; cell line Toledo (1)) | Caspase 3,7 activation- 24 h (1 μM vorinostat)* (Toledo [2]; cell line Toledo (avg)) | Caspase 3,7 activation- 24 h (1 μM vorinostat)* (ST486) | Caspase 3,7 activation- 24 h (1 μM vorinostat)* (SUP_T1) | Caspase 3,7 activation- 24 h (1 μM vorinostat)* (JM1)
CN[C@@H]1C[C@H]2O[C@@](C)([C@@H]1OC)n1c3ccccc3c3c4c(c5c6ccccc6n2c5c31)C(=O)NC4 [ST, staurosporine] | 40 | – | – | – | – | – | – | – | – | – | – | – | – | – | – | – | –
CC(C)(C)c1nc2c3cc[nH]c(=O)c3c3cc(F)ccc3c2[nH]1 [Compound B, 2-tert-butyl-9-fluoro-1,6-dihydro-7H-benzo[h]imidazo[4,5-f]isoquinolin-7-one] | 37 | synergistic induction of apoptosis | – | – | – | – | – | – | – | – | – | – | – | – | – | – | –
O=C(CCCCCCC(=O)Nc1ccccc1)NO [vorinostat, suberoylanilide hydroxamic acid] | 11 | – | 1.57 | 0.66 | 1.87 | 2.13 | 1.88 | 1.58 | 0.83 | 2.23 | + (Caspase 3,7 activation > 2 fold over untreated control.) | + (Caspase 3,7 activation > 2 fold over untreated control.) | + (Caspase 3,7 activation > 2 fold over untreated control.) | + (Caspase 3,7 activation > 2 fold over untreated control.) | + (Caspase 3,7 activation > 2 fold over untreated control.) | + (Caspase 3,7 activation > 2 fold over untreated control.) | + (Caspase 3,7 activation > 2 fold over untreated control.)
